Measurements published in US20070135383A1, “Phospholipase inhibitors, including multi-valent phospholipase inhibitors, and use thereof, including as lumen-localized phospholipase inhibitors” (priority 2005, published 2007).

Experiments:
[1] = biological target: T1, human group 1B PLA2 (hps PLA2) (Homo sapiens, UniProt P04054); assay: Fluorimetric PPyrPM assay for group 1B PLA2 inhibition (Example 12); type: biochemical; settings: human pancreas secreted PLA2; read-out: ILYPSA IC50 hps PLA2
T1 construct: made in house; host or cells: E. coli

[2] = biological target: T2, mouse group 1B PLA2 (mps PLA2) (Mus musculus, UniProt Q9Z0Y2); assay: as above; type: biochemical; settings: mouse pancreas secreted PLA2; read-out: ILYPSA IC50 mps PLA2
T2 construct: made in house; host or cells: E. coli

[3] = biological target: T3, porcine group 1B PLA2 (pps PLA2) (Sus scrofa, UniProt P00592); assay: as above; type: biochemical; settings: porcine pancreas secreted PLA2; read-out: ILYPSA IC50 pps PLA2
T3 construct: purchased
Procedure, shortened: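 Porcine group 1B PLA2 hydrolysis of 4.2 uM PPyrPM vesicle solution (pre-mixing concentration) in 50 mM Tris-HCl pH 8.0, 50 mM KCl, 1 mM CaCl2 with BSA; inhibitors in 8-point threefold series from 15 uM. After 3 min at 37 °C, fluorescence read at ex 342/em 395 nm; duplicate IC50 by four-parameter fit.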

[4] = biological target: mouse PLA2 IB enzyme (Mus musculus, UniProt Q9Z0Y2); settings: versus the mouse PLA2 IB enzyme; cited from earlier work
[5] = Stability at low pH; type: physicochemical

Sequence of mouse PLA2 IB enzyme (Q9Z0Y2 23-146): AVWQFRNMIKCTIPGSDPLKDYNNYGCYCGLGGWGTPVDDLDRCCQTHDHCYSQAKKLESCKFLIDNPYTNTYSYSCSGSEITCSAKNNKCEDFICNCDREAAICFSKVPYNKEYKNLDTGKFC
T2 sequence (Q9Z0Y2 23-146): as above
T3 sequence (P00592 23-146): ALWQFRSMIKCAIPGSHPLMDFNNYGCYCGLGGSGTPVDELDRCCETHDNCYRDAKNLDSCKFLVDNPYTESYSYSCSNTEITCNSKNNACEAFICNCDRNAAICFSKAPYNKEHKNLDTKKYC
T1 sequence (P04054 23-148): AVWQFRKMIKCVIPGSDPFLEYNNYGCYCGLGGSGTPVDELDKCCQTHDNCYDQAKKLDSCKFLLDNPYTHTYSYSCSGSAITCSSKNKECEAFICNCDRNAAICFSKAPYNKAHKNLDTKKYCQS

Cc1c(C(=O)C(N)=O)c2c(OCC(=O)O)cccc2n1CCCCCCCCSCCCCCCCCSCCCCCCCCn1c(C)c(C(=O)C(N)=O)c2c(OCC(=O)O)cccc21 [ILY-V-24, 2,2′-(1,1′-(8,8′-(Octane-1,8-diylbis(sulfanediyl))bis(octane-8,1-diyl))bis(3-(2-amino-2-oxoacetyl)-2-methyl-1H-indole-4,1-diyl))bis(oxy)diacetic acid]
IC50 [1]: 540 nM | IC50 [2]: 1050 nM | IC50 [3]: 800 nM

Cc1c(C(=O)C(N)=O)c2c(OCC(=O)O)cccc2n1Cc1ccccc1-c1ccccc1 [ILY-4001, 2-(3-(2-amino-2-oxoacetyl)-1-(biphenyl-2-ylmethyl)-2-methyl-1H-indol-4-yloxy)acetic acid]
IC50 [4]: 150 nM | stability at low pH [5]: stable
